According to US4112228A, “7-(D-α-Hydroxy-2-arylacetamido)-3-(2-carboxyalkyl-2,3-dihydro-s-tri azolo-[4,3-b]pyridazin-3-on-6-ylthiomethyl)-3-cephem-4-carboxylic acids and derivatives” (priority 1977, dated 1978):
Converted amounts (≈) assume the structure as drawn. Like-named read-outs stand apart in the source and are kept apart here.

How the values were obtained:
Test in all cases: MIC by Steers' agar dilution method
Enterob. cloacae = system: Enterob. cloacae
Pr. mirabilis = details: Proteus mirabilis
E. coli = format: cell-based; details: Escherichia coli

## Cn1nnnc1SCC1=C(C(=O)O)N2C(=O)[C@@H](NC(=O)[C@H](O)c3ccccc3)[C@H]2SC1 [Cefamandole, cefamandole, reference compound]
Enterob. cloacae; A9656, MHA, Table 1
  MIC: 3.1 mg/L (≈ 6.7 µM)
Enterob. cloacae; El-1 A9656, HIA, Table 4
  MIC: 3.1 mg/L (≈ 6.7 µM)
Enterob. cloacae; El-1 A9656, MHA, Table 3
  MIC: 3.1 mg/L (≈ 6.7 µM)
Enterob. cloacae; El-1 A9656, MHA, Table 4
  MIC: 3.1 mg/L (≈ 6.7 µM)
Enterob. cloacae; El-1 A9656, NA, Table 4
  MIC: 6.3 mg/L (≈ 13.6 µM)
Enterob. cloacae; El-2 A20364 (β-lactamase), HIA, Table 4
  MIC: 100 mg/L (≈ 216 µM)
Enterob. cloacae; El-2 A20364 (β-lactamase), MHA, Table 4
  MIC: 50 mg/L (≈ 108 µM)
Enterob. cloacae; El-2 A20364 (β-lactamase), NA, Table 4
  MIC: 6.3 mg/L (≈ 13.6 µM)
Enterob. cloacae; El-2 A20364, MHA, Table 3
  MIC: 3.1 mg/L (≈ 6.7 µM)
Enterob. cloacae; El-4 A20650, MHA, Table 3
  MIC: 1.6 mg/L (≈ 3.46 µM)
Enterob. cloacae; El-6 A9657, MHA, Table 3
  MIC: 0.8 mg/L (≈ 1.73 µM)
Enterob. cloacae; El-7 A9659, MHA, Table 3
  MIC: 0.8 mg/L (≈ 1.73 µM)
Enterob. cloacae; El-8 A9655, MHA, Table 3
  MIC: 1.6 mg/L (≈ 3.46 µM)
Enterob. cloacae; El-9 A20021, MHA, Table 3
  MIC: 100 mg/L (≈ 216 µM)
Enterob. cloacae; El-11 A20344 (β-lactamase), HIA, Table 4
  MIC: > 100 mg/L
Enterob. cloacae; El-11 A20344 (β-lactamase), MHA, Table 4
  MIC: > 100 mg/L
Enterob. cloacae; El-11 A20344 (β-lactamase), NA, Table 4
  MIC: > 100 mg/L
Enterob. cloacae; El-11 A20344, MHA, Table 3
  MIC: > 100 mg/L
Enterob. cloacae; El-12 A21006, MHA, Table 3
  MIC: 3.1 mg/L (≈ 6.7 µM)
Enterob. cloacae; El-14 A20953, MHA, Table 3
  MIC: 3.1 mg/L (≈ 6.7 µM)
Enterob. cloacae; MHA, Example 10
  MIC: 3.1 mg/L (≈ 6.7 µM)
Pr. mirabilis; A9554, MHA, Table 1
  MIC: 0.4 mg/L (≈ 0.865 µM)
Pr. mirabilis; Pm-1 A9554, HIA, Table 4
  MIC: 0.4 mg/L (≈ 0.865 µM)
Pr. mirabilis; Pm-1 A9554, NA, Table 4
  MIC: 0.2 mg/L (≈ 0.432 µM)
Pr. mirabilis; Pm-2 A9900, HIA, Table 4
  MIC: 0.4 mg/L (≈ 0.865 µM)
Pr. mirabilis; Pm-2 A9900, MHA, Table 3
  MIC: 1.6 mg/L (≈ 3.46 µM)
Pr. mirabilis; Pm-2 A9900, MHA, Table 4
  MIC: 0.8 mg/L (≈ 1.73 µM)
Pr. mirabilis; Pm-2 A9900, NA, Table 4
  MIC: 0.4 mg/L (≈ 0.865 µM)
Pr. mirabilis; Pm-3 A20119, MHA, Table 3
  MIC: 3.1 mg/L (≈ 6.7 µM)
Pr. mirabilis; Pm-4 A20454, MHA, Table 3
  MIC: 1.6 mg/L (≈ 3.46 µM)
Pr. mirabilis; Pm-6 A21222, MHA, Table 3
  MIC: 1.6 mg/L (≈ 3.46 µM)
Pr. mirabilis; strain not named (2nd of 2), MHA, Example 10
  MIC: 0.2 mg/L (≈ 0.432 µM)
E. coli; A9660, MHA, Table 1, read-out: MIC
  MIC: 0.1 mg/L (≈ 0.216 µM)
E. coli; A15147, MHA, Table 1, read-out: MIC
  MIC: 0.4 mg/L (≈ 0.865 µM)
E. coli; A15810, MHA, Table 1, read-out: MIC
  MIC: 0.4 mg/L (≈ 0.865 µM)
E. coli; ATCC8739, ATCC 8739, MHA, Example 10
  MIC: 3.1 mg/L (≈ 6.7 µM)
E. coli; ATCC8739, ATCC 8739, MHA, Table 1, read-out: MIC
  MIC: 0.05 mg/L (≈ 0.108 µM)
E. coli; ATCC8739, Ec-15 ATCC 8739, HIA, Table 4, read-out: MIC
  MIC: 0.1 mg/L (≈ 0.216 µM)
E. coli; ATCC8739, Ec-15 ATCC 8739, MHA, Table 3, read-out: MIC
  MIC: 0.1 mg/L (≈ 0.216 µM)
E. coli; ATCC8739, Ec-15 ATCC 8739, MHA, Table 4, read-out: MIC
  MIC: 0.1 mg/L (≈ 0.216 µM)
E. coli; ATCC8739, Ec-15 ATCC 8739, NA, Table 4, read-out: MIC
  MIC: 0.1 mg/L (≈ 0.216 µM)
E. coli; BX-1373, MHA, Example 10, read-out: MIC
  MIC: 3.1 mg/L (≈ 6.7 µM)
E. coli; BX-1373, MHA, Table 1, read-out: MIC
  MIC: 0.8 mg/L (≈ 1.73 µM)
E. coli; Ec-1 NIHJ, HIA, Table 4, read-out: MIC
  MIC: 0.1 mg/L (≈ 0.216 µM)
E. coli; Ec-1 NIHJ, MHA, Table 3, read-out: MIC
  MIC: 0.1 mg/L (≈ 0.216 µM)
E. coli; Ec-1 NIHJ, MHA, Table 4, read-out: MIC
  MIC: 0.05 mg/L (≈ 0.108 µM)
E. coli; Ec-1 NIHJ, NA, Table 4, read-out: MIC
  MIC: 0.1 mg/L (≈ 0.216 µM)
E. coli; Ec-3 Juhl A15119, HIA, Table 4, read-out: MIC
  MIC: 0.4 mg/L (≈ 0.865 µM)
E. coli; Ec-3 Juhl A15119, MHA, Table 3, read-out: MIC
  MIC: 0.8 mg/L (≈ 1.73 µM)
E. coli; Ec-3 Juhl A15119, MHA, Table 4, read-out: MIC
  MIC: 0.4 mg/L (≈ 0.865 µM)
E. coli; Ec-3 Juhl A15119, NA, Table 4, read-out: MIC
  MIC: 0.2 mg/L (≈ 0.432 µM)
E. coli; Ec-4 A15169, MHA, Table 3, read-out: MIC
  MIC: 6.3 mg/L (≈ 13.6 µM)
E. coli; Ec-5 K-12, ML-1630 A20363, MHA, Table 3, read-out: MIC
  MIC: 0.8 mg/L (≈ 1.73 µM)
E. coli; Ec-11 A20366 (β-lactamase), HIA, Table 4, read-out: MIC
  MIC: 25 mg/L (≈ 54.1 µM)
E. coli; Ec-11 A20366 (β-lactamase), MHA, Table 4, read-out: MIC
  MIC: 50 mg/L (≈ 108 µM)
E. coli; Ec-11 A20366 (β-lactamase), NA, Table 4, read-out: MIC
  MIC: 50 mg/L (≈ 108 µM)
E. coli; Ec-11 A20366, MHA, Table 3, read-out: MIC
  MIC: 25 mg/L (≈ 54.1 µM)
E. coli; Ec-34 A9660, MHA, Table 3, read-out: MIC
  MIC: 0.1 mg/L (≈ 0.216 µM)
E. coli; Ec-35 A9435, MHA, Table 3, read-out: MIC
  MIC: 0.8 mg/L (≈ 1.73 µM)
E. coli; Ec-36 A15147 (β-lactamase), HIA, Table 4, read-out: MIC
  MIC: 3.1 mg/L (≈ 6.7 µM)
E. coli; Ec-36 A15147 (β-lactamase), MHA, Table 4, read-out: MIC
  MIC: 3.1 mg/L (≈ 6.7 µM)
E. coli; Ec-36 A15147 (β-lactamase), NA, Table 4, read-out: MIC
  MIC: 1.6 mg/L (≈ 3.46 µM)
E. coli; Ec-36 A15147, MHA, Table 3, read-out: MIC
  MIC: 1.6 mg/L (≈ 3.46 µM)
E. coli; Ec-40 A20361, MHA, Table 3, read-out: MIC
  MIC: 0.8 mg/L (≈ 1.73 µM)
E. coli; Ec-44 A9535, MHA, Table 3, read-out: MIC
  MIC: 0.1 mg/L (≈ 0.216 µM)
E. coli; Ec-45 A15148, MHA, Table 3, read-out: MIC
  MIC: 1.6 mg/L (≈ 3.46 µM)
E. coli; Ec-46 A15164 (β-lactamase), HIA, Table 4, read-out: MIC
  MIC: 12.5 mg/L (≈ 27 µM)
E. coli; Ec-46 A15164 (β-lactamase), MHA, Table 4, read-out: MIC
  MIC: 12.5 mg/L (≈ 27 µM)
E. coli; Ec-46 A15164 (β-lactamase), NA, Table 4, read-out: MIC
  MIC: 25 mg/L (≈ 54.1 µM)
